Assay results: patent US4587333A, “Cephalosporins and their production” (Takeda Chemical Industries, Ltd., priority 1983, dated 1986)
≈ marks a conversion by molar mass, not a printed value.

Tests used:
[1] = tested on: β-lactamase produced by Proteus vulgalis GN 4413; assay: stability to β-lactamase (relative ratio of hydrolysis rate); assay type: biochemical; conditions: CER rated at 100
Excerpt: (§1) In the above Table 3, the stabilities against the β-lactamase produced by Escherichia coli TN 713 and β-lactamase produced by Klebsiella oxytoca TN 1719 are expressed on a numerical scale, whereby the stabilities of PCG against these are rated at 100. Also, the stabilities against the β-lactamase produced by Serratia marcescens and β-lactamase produced by Proteus vulgaris are expressed on a numerical scale, whereby the stabilities of CER against these are rated at 100.

[2] = tested on: β-lactamase produced by Escherichia coli TN 713; assay: as above; assay type: biochemical; conditions: PCG rated at 100
Excerpt: as §1

[3] = tested on: β-lactamase produced by Serratia marcescens TN 81; assay: as above; assay type: biochemical; conditions: CER rated at 100
Excerpt: as §1

[4] = tested on: β-lactamase produced by Klebsiella oxytoca TN 1719; assay: as above; assay type: biochemical; conditions: PCG rated at 100
Excerpt: as §1

[5] = stability in aqueous solution; assay type: physicochemical
[6] = property of the substance (amphoteric); assay type: physicochemical; conditions: dihydrochloride is neutral
Escherichia coli 0-111 = assay: therapeutic effect to infectious disease of mice; assay type: in vivo; conditions: 0111; mice infected with Escherichia coli 0-111; subcutaneous (SC); TAN-547 hydrochloride(s)
solubility = assay type: physicochemical
[7] = tested on: Serratia marcescens IFO 12648; assay: antimicrobial spectrum (minimal inhibitory concentration); assay type: cell-based; conditions: IFO12648, pH 7.0
Excerpt: (§2) The antimicrobial spectra of the compound (I) are shown in Table 1. | *Culture medium: 17.5 g of Bacto antibiotic medium 3 (Difco), 5 g of | Bacto yeast extract (Difco), 20 g of Bacto agar (Difco), 1 l of distilled | water; pH 7.0 | The amount of inoculated microorganism: 1 loopful of about 10^6 /ml o | microorganism suspension.

[8] = tested on: Brevibacterium thiogenitalis ATCC 19240; assay: as above; assay type: cell-based; conditions: Corynebacterium glutamicum, ATCC19240, pH 7.0
Excerpt: as §2

[9] = tested on: Alcaligenes faecalis IFO 13111; assay: as above; assay type: cell-based; conditions: IFO13111, pH 7.0
Excerpt: as §2

[10] = tested on: Escherichia coli NIHJ JC-2; assay: as above; assay type: cell-based; conditions: NIHJJC2, pH 7.0
Excerpt: as §2

[11] = tested on: Staphylococcus aureus FDA 209P; assay: as above; assay type: cell-based; conditions: FDA209P, pH 7.0
Excerpt: as §2

[12] = tested on: Salmonella typhimurium IFO 12529; assay: as above; assay type: cell-based; conditions: Salmonella enterica, pH 7.0
Excerpt: as §2

[13] = tested on: Bacillus megaterium IFO 12108; assay: as above; assay type: cell-based; conditions: Priestia megaterium, IFO12108, pH 7.0
Excerpt: as §2

[14] = tested on: Citrobacter freundii IFO 12681; assay: as above; assay type: cell-based; conditions: IFO12681, pH 7.0
Excerpt: as §2

[15] = tested on: Pseudomonas aeruginosa IFO 3080; assay: as above; assay type: cell-based; conditions: IFO3080, pH 7.0
Excerpt: as §2

[16] = tested on: Klebsiella pneumoniae IFO 3317; assay: as above; assay type: cell-based; conditions: IFO3317, pH 7.0
Excerpt: as §2

[17] = tested on: Bacillus subtilis NIHJ PCI219; assay: as above; assay type: cell-based; conditions: NIHJPCI219, pH 7.0
Excerpt: as §2

[18] = tested on: Acinetobacter calcoaceticus IFO 12552; assay: as above; assay type: cell-based; conditions: IFO12552, pH 7.0
Excerpt: as §2

[19] = tested on: Proteus vulgalis IFO 3988; assay: as above; assay type: cell-based; conditions: pH 7.0
Excerpt: as §2

[20] = acute toxicity, subcutaneous administration to mice; assay type: in vivo; conditions: subcutaneously, 1 g/kg
β-lactamase = assay: stability to β-lactamase (overall statement); assay type: biochemical; conditions: as seen from Table 3
Excerpt: as §1

[21] = dimethylsulfoxide, methanol, acetone, ethyl acetate
[22] = water, aqueous acetone, aqueous alcohol

## CC1(C)S[C@@H]2[C@H](NC(=O)Cc3ccccc3)C(=O)N2[C@H]1C(=O)O [PCG, benzylpenicillin, reference compound]
[1]
  Relative ratio of hydrolysis rate: 16
[2]
  Relative ratio of hydrolysis rate: 100
[3]
  Relative ratio of hydrolysis rate: 12
[4]
  Relative ratio of hydrolysis rate: 100

## CC(N)C(=O)NC(C)C(=O)NC(CCCNC(=N)N)C(O)CC(=O)OCC1=C(C(=O)O)N2C(=O)C(NC(=O)CCCC(N)C(=O)O)C2SC1 (centres unmarked) [TAN-547 E]
[5]; acidic aqueous solution
  Stability: Slightly unstable
[5]; basic aqueous solution
  Stability: Unstable
[5]; neutral aqueous solution
  Stability: Slightly unstable
[6]
  Property of the substance: Amphoteric substance
Escherichia coli 0-111
  ED50: 21 mg/kg
solubility; [21]
  Solubility: Hardly soluble
solubility; [22]
  Solubility: Easily soluble
[7]
  MIC: > 100 µg/mL
[8]
  MIC: 3.13 µg/mL (≈ 4.37 µM)
[9]
  MIC: 12.5 µg/mL (≈ 17.5 µM)
[10]
  MIC: 50 µg/mL (≈ 69.9 µM)
[11]
  MIC: 25 µg/mL (≈ 34.9 µM)
[12]
  MIC: 50 µg/mL (≈ 69.9 µM)
[13]
  MIC: 1.56 µg/mL (≈ 2.18 µM)
[14]
  MIC: > 100 µg/mL
[15]
  MIC: > 100 µg/mL
[16]
  MIC: 100 µg/mL (≈ 140 µM)
[17]
  MIC: 1.56 µg/mL (≈ 2.18 µM)
[18]
  MIC: 100 µg/mL (≈ 140 µM)
[19]
  MIC: 50 µg/mL (≈ 69.9 µM)

## CC(N)C(=O)NC(CCCNC(=N)N)C(O)CC(=O)OCC1=C(C(=O)O)N2C(=O)C(NC(=O)CCCC(N)C(=O)O)C2SC1 (centres unmarked) [TAN-547 D]
[5]; acidic aqueous solution
  Stability: Slightly unstable
[5]; basic aqueous solution
  Stability: Unstable
[5]; neutral aqueous solution
  Stability: Slightly unstable
[6]
  Property of the substance: Amphoteric substance
Escherichia coli 0-111
  ED50: 9.92 mg/kg
solubility; [21]
  Solubility: Hardly soluble
solubility; [22]
  Solubility: Easily soluble
[7]
  MIC: > 100 µg/mL
[8]
  MIC: 1.56 µg/mL (≈ 2.42 µM)
[9]
  MIC: 12.5 µg/mL (≈ 19.4 µM)
[10]
  MIC: 50 µg/mL (≈ 77.6 µM)
[11]
  MIC: 25 µg/mL (≈ 38.8 µM)
[12]
  MIC: 50 µg/mL (≈ 77.6 µM)
[13]
  MIC: 0.78 µg/mL (≈ 1.21 µM)
[14]
  MIC: > 100 µg/mL
[15]
  MIC: > 100 µg/mL
[16]
  MIC: 100 µg/mL (≈ 155 µM)
[17]
  MIC: 0.78 µg/mL (≈ 1.21 µM)
[18]
  MIC: 50 µg/mL (≈ 77.6 µM)
[19]
  MIC: 50 µg/mL (≈ 77.6 µM)
[20]
  death: no death was observed

## O=C(Cc1cccs1)N[C@@H]1C(=O)N2C(C(=O)[O-])=C(C[n+]3ccccc3)CS[C@H]12 [CER, cephaloridine, reference compound]
[1]
  Relative ratio of hydrolysis rate: 100
[2]
  Relative ratio of hydrolysis rate: 21
[3]
  Relative ratio of hydrolysis rate: 100
[4]
  Relative ratio of hydrolysis rate: 30

## CC(N)C(=O)NC(C)C(=O)NC(C)C(=O)NC(CCCNC(=N)N)C(O)CC(=O)OCC1=C(C(=O)O)N2C(=O)C(NC(=O)CCCC(N)C(=O)O)C2SC1 (centres unmarked) [TAN-547 F]
[5]; acidic aqueous solution
  Stability: Slightly unstable
[5]; basic aqueous solution
  Stability: Unstable
[5]; neutral aqueous solution
  Stability: Slightly unstable
[6]
  Property of the substance: Amphoteric substance
Escherichia coli 0-111
  ED50: 25 mg/kg
solubility; [21]
  Solubility: Hardly soluble
solubility; [22]
  Solubility: Easily soluble
[7]
  MIC: > 100 µg/mL
[8]
  MIC: 3.13 µg/mL (≈ 3.98 µM)
[9]
  MIC: 12.5 µg/mL (≈ 15.9 µM)
[10]
  MIC: > 100 µg/mL
[11]
  MIC: 12.5 µg/mL (≈ 15.9 µM)
[12]
  MIC: 100 µg/mL (≈ 127 µM)
[13]
  MIC: 1.56 µg/mL (≈ 1.98 µM)
[14]
  MIC: > 100 µg/mL
[15]
  MIC: > 100 µg/mL
[16]
  MIC: 100 µg/mL (≈ 127 µM)
[17]
  MIC: 1.56 µg/mL (≈ 1.98 µM)
[18]
  MIC: 100 µg/mL (≈ 127 µM)
[19]
  MIC: 100 µg/mL (≈ 127 µM)

## CCN1CCN(C(=O)N[C@@H](C(=O)N[C@@H]2C(=O)N3C(C(=O)O)=C(CSc4nnnn4C)CS[C@H]23)c2ccc(O)cc2)C(=O)C1=O [CPZ, cefoperazone, reference compound]
[1]
  Relative ratio of hydrolysis rate: 10.5
[2]
  Relative ratio of hydrolysis rate: 11.2
[3]
  Relative ratio of hydrolysis rate: 11.6
[4]
  Relative ratio of hydrolysis rate: 1.55

## CC(N)C(=O)NC(C)C(=O)NC(CCCNC(=N)N)C(O)CC(=O)OCC1=C(C(=O)O)N2C(=O)C(NC=O)(NC(=O)CCCC(N)C(=O)O)C2SC1 (centres unmarked) [TAN-547 B]
[1]
  Relative ratio of hydrolysis rate: < 0.01
[2]
  Relative ratio of hydrolysis rate: < 0.01
[3]
  Relative ratio of hydrolysis rate: < 0.01
[4]
  Relative ratio of hydrolysis rate: < 0.01
[5]; acidic aqueous solution
  Stability: Unstable
[5]; basic aqueous solution
  Stability: Unstable
[5]; neutral aqueous solution
  Stability: slightly unstable
[6]
  Property of the substance: Amphoteric substance
Escherichia coli 0-111
  ED50: 17.2 mg/kg
β-lactamase
  stability to β-lactamase: remarkably stable
solubility; [21]
  Solubility: Hardly soluble
solubility; [22]
  Solubility: Easily soluble
[7]
  MIC: 50 µg/mL (≈ 65.9 µM)
[8]
  MIC: 6.25 µg/mL (≈ 8.24 µM)
[9]
  MIC: 6.25 µg/mL (≈ 8.24 µM)
[10]
  MIC: 25 µg/mL (≈ 32.9 µM)
[11]
  MIC: > 50 µg/mL
[12]
  MIC: 25 µg/mL (≈ 32.9 µM)
[13]
  MIC: 12.5 µg/mL (≈ 16.5 µM)
[14]
  MIC: 50 µg/mL (≈ 65.9 µM)
[15]
  MIC: > 50 µg/mL
[16]
  MIC: 50 µg/mL (≈ 65.9 µM)
[17]
  MIC: 12.5 µg/mL (≈ 16.5 µM)
[18]
  MIC: 3.13 µg/mL (≈ 4.12 µM)
[19]
  MIC: 25 µg/mL (≈ 32.9 µM)

## CC(N)C(=O)NC(CCCNC(=N)N)C(O)CC(=O)OCC1=C(C(=O)O)N2C(=O)C(NC=O)(NC(=O)CCCC(N)C(=O)O)C2SC1 (centres unmarked) [TAN-547 A]
[1]
  Relative ratio of hydrolysis rate: < 0.01
[2]
  Relative ratio of hydrolysis rate: < 0.01
[3]
  Relative ratio of hydrolysis rate: < 0.01
[4]
  Relative ratio of hydrolysis rate: < 0.01
[5]; acidic aqueous solution
  Stability: Unstable
[5]; basic aqueous solution
  Stability: Unstable
[5]; neutral aqueous solution
  Stability: slightly unstable
[6]
  Property of the substance: Amphoteric substance
Escherichia coli 0-111
  ED50: 18.2 mg/kg
β-lactamase
  stability to β-lactamase: remarkably stable
solubility; [21]
  Solubility: Hardly soluble
solubility; [22]
  Solubility: Easily soluble
[7]
  MIC: 50 µg/mL (≈ 72.7 µM)
[8]
  MIC: 6.25 µg/mL (≈ 9.09 µM)
[9]
  MIC: 6.25 µg/mL (≈ 9.09 µM)
[10]
  MIC: 25 µg/mL (≈ 36.4 µM)
[11]
  MIC: > 50 µg/mL
[12]
  MIC: 50 µg/mL (≈ 72.7 µM)
[13]
  MIC: 12.5 µg/mL (≈ 18.2 µM)
[14]
  MIC: 50 µg/mL (≈ 72.7 µM)
[15]
  MIC: > 50 µg/mL
[16]
  MIC: 50 µg/mL (≈ 72.7 µM)
[17]
  MIC: 12.5 µg/mL (≈ 18.2 µM)
[18]
  MIC: 1.56 µg/mL (≈ 2.27 µM)
[19]
  MIC: 50 µg/mL (≈ 72.7 µM)

## CC(N)C(=O)NC(C)C(=O)NC(C)C(=O)NC(CCCNC(=N)N)C(O)CC(=O)OCC1=C(C(=O)O)N2C(=O)C(NC=O)(NC(=O)CCCC(N)C(=O)O)C2SC1 (centres unmarked) [TAN-547 C]
[1]
  Relative ratio of hydrolysis rate: < 0.01
[2]
  Relative ratio of hydrolysis rate: < 0.01
[3]
  Relative ratio of hydrolysis rate: < 0.01
[4]
  Relative ratio of hydrolysis rate: < 0.01
[5]; acidic aqueous solution
  Stability: Unstable
[5]; basic aqueous solution
  Stability: Unstable
[5]; neutral aqueous solution
  Stability: slightly unstable
[6]
  Property of the substance: Amphoteric substance
Escherichia coli 0-111
  ED50: 16.2 mg/kg
β-lactamase
  stability to β-lactamase: remarkably stable
solubility; [21]
  Solubility: Hardly soluble
solubility; [22]
  Solubility: Easily soluble
[7]
  MIC: 50 µg/mL (≈ 60.2 µM)
[8]
  MIC: 12.5 µg/mL (≈ 15.1 µM)
[9]
  MIC: 12.5 µg/mL (≈ 15.1 µM)
[10]
  MIC: 25 µg/mL (≈ 30.1 µM)
[11]
  MIC: > 50 µg/mL
[12]
  MIC: 25 µg/mL (≈ 30.1 µM)
[13]
  MIC: 12.5 µg/mL (≈ 15.1 µM)
[14]
  MIC: 50 µg/mL (≈ 60.2 µM)
[15]
  MIC: > 50 µg/mL
[16]
  MIC: 50 µg/mL (≈ 60.2 µM)
[17]
  MIC: 12.5 µg/mL (≈ 15.1 µM)
[18]
  MIC: 6.25 µg/mL (≈ 7.53 µM)
[19]
  MIC: 50 µg/mL (≈ 60.2 µM)
[20]
  death: no death was observed
